According to ChEMBL document CHEMBL3885861, “Open TG-GATES”:

Organism: Rattus norvegicus
Assay: Open TG-GATES - Regimen: Daily Repeat
Assay type: toxicity, organism-based, Sprague-Dawley
Design: regimen Daily Repeat, gender Male, age 6 weeks
Conditions: in vivo, po, route gavage; for gamma-GTP / ALP / AST / BUN / CRE / Ca / Cl / DBIL / GLC / IP / K / LDH / Na / PL / RALB / TBIL / TC / TG / TP: tissue Plasma; for APTT / Bas / Eos / Fbg / Hb / Ht / Lym / MCH / MCHC / MCV / Mono / Neu / PT / Plat / RBC / Ret / WBC: tissue Blood; for KIDNEY_L / KIDNEY_R / KIDNEY_TOTAL: tissue Kidney; for LIVER: tissue Liver
[1] = 300 mg/kg, 72 h, dose level Middle, time 3 day
[2] = 300 mg/kg, […], dose level Middle, time 7 day
[3] = 300 mg/kg, […], dose level Middle, time 14 day
[4] = 300 mg/kg, […], dose level Middle, time 28 day
[5] = 1000 mg/kg, 72 h, dose level High, time 3 day
[6] = 1000 mg/kg, […], dose level High, time 7 day
[7] = 1000 mg/kg, […], dose level High, time 14 day
[8] = 1000 mg/kg, […], dose level High, time 28 day

COc1ccc2[nH]c([S+]([O-])Cc3ncc(C)c(OC)c3C)nc2c1 (stereo not drawn) [OMEPRAZOLE]
gamma-GTP (100 mg/kg, […], dose level Low, time 28 day): 0.8 IU/L
APTT [1]: 19.8 s
Bas [1]: 0%
Eos [1]: 0.8%
Fbg [1]: 223 mg/dL
Hb [1]: 13 g/dL
Ht [1]: 37.9%
Lym [1]: 81%
MCH [1]: 20.9 pg
MCHC [1]: 34.3%
MCV [1]: 60.9 fL
Mono [1]: 3.6%
Neu [1]: 14%
PT [1]: 12.2 s
Plat [1]: 135 x10_4/uL
RBC [1]: 623 x10_4/ul
Ret [1]: 4.2%
WBC [1]: 94 x10_2/uL
KIDNEY_L [1]: 1 g
KIDNEY_R [1]: 1 g
KIDNEY_TOTAL [1]: 2.1 g
LIVER [1]: 12.8 g
ALP [1]: 925.8 IU/L
AST [1]: 61.4 IU/L
BUN [1]: 14.8 mg/dL
CRE [1]: 0.4 mg/dL
Ca [1]: 10.5 mg/dL
Cl [1]: 100.8 meq/L
DBIL [1]: 0.058 mg/dL
GLC [1]: 220.6 mg/dL
IP [1]: 8.9 mg/dL
K [1]: 3.9 meq/L
LDH [1]: 184.6 IU/L
Na [1]: 139.8 meq/L
PL [1]: 175.8 mg/dL
RALB [1]: 3.4 g/dL
TBIL [1]: 0.1 mg/dL
TC [1]: 101.2 mg/dL
TG [1]: 85 mg/dL
TP [1]: 5.6 g/dL
gamma-GTP [1]: 1 IU/L
TERMINAL_BW [2]: 269.3 g
TERMINAL_BW [3]: 314.9 g
TERMINAL_BW [4]: 384.1 g
APTT [2]: 21.7 s
Bas [2]: 0%
Eos [2]: 1%
Fbg [2]: 216.8 mg/dL
Hb [2]: 13.4 g/dL
Ht [2]: 39.5%
Lym [2]: 78.8%
MCH [2]: 20.6 pg
MCHC [2]: 33.9%
MCV [2]: 60.8 fL
Mono [2]: 3%
Neu [2]: 17.4%
PT [2]: 12 s
Plat [2]: 156.8 x10_4/uL
RBC [2]: 649.8 x10_4/ul
Ret [2]: 4.9%
WBC [2]: 98.4 x10_2/uL
APTT [3]: 20.3 s
Bas [3]: 0%
Eos [3]: 0.8%
Fbg [3]: 211.4 mg/dL
Hb [3]: 13.6 g/dL
Ht [3]: 39.2%
Lym [3]: 83.8%
MCH [3]: 20 pg
MCHC [3]: 34.6%
MCV [3]: 57.6 fL
Mono [3]: 2.8%
Neu [3]: 11.4%
PT [3]: 12.2 s
Plat [3]: 128.3 x10_4/uL
RBC [3]: 681.4 x10_4/ul
Ret [3]: 4.2%
WBC [3]: 96 x10_2/uL
APTT [4]: 21.8 s
Bas [4]: 0%
Eos [4]: 0.8%
Fbg [4]: 203 mg/dL
Hb [4]: 14.5 g/dL
Ht [4]: 42.2%
Lym [4]: 80.4%
MCH [4]: 18.7 pg
MCHC [4]: 34.3%
MCV [4]: 54.6 fL
Mono [4]: 2.4%
Neu [4]: 15.6%
PT [4]: 12.4 s
Plat [4]: 119.7 x10_4/uL
RBC [4]: 773.8 x10_4/ul
Ret [4]: 2.7%
WBC [4]: 105.1 x10_2/uL
KIDNEY_L [2]: 1.1 g
KIDNEY_R [2]: 1.1 g
KIDNEY_TOTAL [2]: 2.2 g
KIDNEY_L [3]: 1.3 g
KIDNEY_R [3]: 1.3 g
KIDNEY_TOTAL [3]: 2.5 g
KIDNEY_L [4]: 1.4 g
KIDNEY_R [4]: 1.4 g
KIDNEY_TOTAL [4]: 2.9 g
LIVER [2]: 14.5 g
LIVER [3]: 15.7 g
LIVER [4]: 18.2 g
ALP [2]: 924.4 IU/L
AST [2]: 63.8 IU/L
BUN [2]: 17.2 mg/dL
CRE [2]: 0.4 mg/dL
Ca [2]: 10.8 mg/dL
Cl [2]: 101.2 meq/L
DBIL [2]: 0.086 mg/dL
GLC [2]: 208.6 mg/dL
IP [2]: 8.8 mg/dL
K [2]: 3.8 meq/L
LDH [2]: 248.4 IU/L
Na [2]: 140.8 meq/L
PL [2]: 173.8 mg/dL
RALB [2]: 3.4 g/dL
TBIL [2]: 0.1 mg/dL
TC [2]: 89 mg/dL
TG [2]: 124.8 mg/dL
TP [2]: 5.8 g/dL
gamma-GTP [2]: 1 IU/L
ALP [3]: 808.4 IU/L
AST [3]: 62 IU/L
BUN [3]: 17.2 mg/dL
CRE [3]: 0.5 mg/dL
Ca [3]: 10.5 mg/dL
Cl [3]: 101.6 meq/L
DBIL [3]: 0.066 mg/dL
GLC [3]: 205.4 mg/dL
IP [3]: 8.3 mg/dL
K [3]: 3.9 meq/L
LDH [3]: 198 IU/L
Na [3]: 141.4 meq/L
PL [3]: 162.6 mg/dL
RALB [3]: 3.6 g/dL
TBIL [3]: 0.1 mg/dL
TC [3]: 84.4 mg/dL
TG [3]: 78.4 mg/dL
TP [3]: 6 g/dL
gamma-GTP [3]: 0.8 IU/L
ALP [4]: 521.6 IU/L
AST [4]: 56.2 IU/L
BUN [4]: 15.6 mg/dL
CRE [4]: 0.5 mg/dL
Ca [4]: 10.3 mg/dL
Cl [4]: 101.6 meq/L
DBIL [4]: 0.062 mg/dL
GLC [4]: 221.8 mg/dL
IP [4]: 7.3 mg/dL
K [4]: 3.7 meq/L
LDH [4]: 135 IU/L
Na [4]: 141.6 meq/L
PL [4]: 134.8 mg/dL
RALB [4]: 3.5 g/dL
TBIL [4]: 0.1 mg/dL
TC [4]: 70 mg/dL
TG [4]: 66 mg/dL
TP [4]: 6.1 g/dL
gamma-GTP [4]: 1 IU/L
TERMINAL_BW [5]: 219.1 g
APTT [5]: 19.8 s
Bas [5]: 0%
Eos [5]: 0.6%
Fbg [5]: 196 mg/dL
Hb [5]: 13.8 g/dL
Ht [5]: 39.6%
Lym [5]: 83.2%
MCH [5]: 20.8 pg
MCHC [5]: 34.8%
MCV [5]: 59.9 fL
Mono [5]: 3.8%
Neu [5]: 11.8%
PT [5]: 12.1 s
Plat [5]: 132.7 x10_4/uL
RBC [5]: 662.2 x10_4/ul
Ret [5]: 1.7%
WBC [5]: 99.5 x10_2/uL
KIDNEY_L [5]: 1 g
KIDNEY_R [5]: 1 g
KIDNEY_TOTAL [5]: 1.9 g
LIVER [5]: 15.4 g
ALP [5]: 629 IU/L
AST [5]: 46 IU/L
BUN [5]: 17.6 mg/dL
CRE [5]: 0.4 mg/dL
Ca [5]: 10 mg/dL
Cl [5]: 101.8 meq/L
DBIL [5]: 0.094 mg/dL
GLC [5]: 195 mg/dL
IP [5]: 7.5 mg/dL
K [5]: 3.8 meq/L
LDH [5]: 200 IU/L
Na [5]: 140.2 meq/L
PL [5]: 207.4 mg/dL
RALB [5]: 3.3 g/dL
TBIL [5]: 0.2 mg/dL
TC [5]: 120.8 mg/dL
TG [5]: 157.2 mg/dL
TP [5]: 5.6 g/dL
gamma-GTP [5]: 2 IU/L
TERMINAL_BW [6]: 262 g
TERMINAL_BW [7]: 300.1 g
TERMINAL_BW [8]: 351.8 g
APTT [6]: 21.9 s
Bas [6]: 0%
Eos [6]: 0.6%
Fbg [6]: 215.2 mg/dL
Hb [6]: 12 g/dL
Ht [6]: 34.9%
Lym [6]: 80.4%
MCH [6]: 20.3 pg
MCHC [6]: 34.4%
MCV [6]: 59 fL
Mono [6]: 3.8%
Neu [6]: 14.6%
PT [6]: 11.9 s
Plat [6]: 171.4 x10_4/uL
RBC [6]: 591.8 x10_4/ul
Ret [6]: 4.3%
WBC [6]: 118.3 x10_2/uL
APTT [7]: 24.5 s
Bas [7]: 0%
Eos [7]: 0.6%
Fbg [7]: 203.8 mg/dL
Hb [7]: 11.7 g/dL
Ht [7]: 34.1%
Lym [7]: 82.2%
MCH [7]: 18.6 pg
MCHC [7]: 34.2%
MCV [7]: 54.3 fL
Mono [7]: 2.6%
Neu [7]: 13%
PT [7]: 12.7 s
Plat [7]: 139.7 x10_4/uL
RBC [7]: 628.4 x10_4/ul
Ret [7]: 5%
WBC [7]: 131 x10_2/uL
APTT [8]: 23.8 s
Bas [8]: 0%
Eos [8]: 0.6%
Fbg [8]: 196.8 mg/dL
Hb [8]: 12 g/dL
Ht [8]: 35.7%
Lym [8]: 78.6%
MCH [8]: 17.3 pg
MCHC [8]: 33.7%
MCV [8]: 51.3 fL
Mono [8]: 2.2%
Neu [8]: 17.6%
PT [8]: 12.3 s
Plat [8]: 124 x10_4/uL
RBC [8]: 697.2 x10_4/ul
Ret [8]: 4%
WBC [8]: 152.6 x10_2/uL
KIDNEY_L [6]: 1.1 g
KIDNEY_R [6]: 1.1 g
KIDNEY_TOTAL [6]: 2.1 g
KIDNEY_L [7]: 1.2 g
KIDNEY_R [7]: 1.2 g
KIDNEY_TOTAL [7]: 2.3 g
KIDNEY_L [8]: 1.2 g
KIDNEY_R [8]: 1.2 g
KIDNEY_TOTAL [8]: 2.5 g
LIVER [6]: 18.1 g
LIVER [7]: 21.2 g
LIVER [8]: 21.4 g
ALP [6]: 661.8 IU/L
AST [6]: 59.2 IU/L
BUN [6]: 16.6 mg/dL
CRE [6]: 0.4 mg/dL
Ca [6]: 10.7 mg/dL
Cl [6]: 101.4 meq/L
DBIL [6]: 0.064 mg/dL
GLC [6]: 187.4 mg/dL
IP [6]: 8.2 mg/dL
K [6]: 3.9 meq/L
LDH [6]: 242.4 IU/L
Na [6]: 140.6 meq/L
PL [6]: 200.8 mg/dL
RALB [6]: 3.5 g/dL
TBIL [6]: 0.1 mg/dL
TC [6]: 117.6 mg/dL
TG [6]: 62.4 mg/dL
TP [6]: 6.2 g/dL
gamma-GTP [6]: 2.6 IU/L
ALP [7]: 599 IU/L
AST [7]: 52.6 IU/L
BUN [7]: 18.2 mg/dL
CRE [7]: 0.5 mg/dL
Ca [7]: 10.8 mg/dL
Cl [7]: 102.8 meq/L
DBIL [7]: 0.072 mg/dL
GLC [7]: 191.4 mg/dL
IP [7]: 7.8 mg/dL
K [7]: 3.9 meq/L
LDH [7]: 195.8 IU/L
Na [7]: 141.2 meq/L
PL [7]: 206.6 mg/dL
RALB [7]: 3.6 g/dL
TBIL [7]: 0.1 mg/dL
TC [7]: 120.8 mg/dL
TG [7]: 77.8 mg/dL
TP [7]: 6.3 g/dL
gamma-GTP [7]: 2.2 IU/L
ALP [8]: 458.4 IU/L
AST [8]: 50.6 IU/L
BUN [8]: 18.2 mg/dL
CRE [8]: 0.5 mg/dL
Ca [8]: 10.7 mg/dL
Cl [8]: 102.2 meq/L
DBIL [8]: 0.07 mg/dL
GLC [8]: 190.8 mg/dL
IP [8]: 6.9 mg/dL
K [8]: 3.9 meq/L
LDH [8]: 119.2 IU/L
Na [8]: 142.6 meq/L
PL [8]: 185.8 mg/dL
RALB [8]: 3.8 g/dL
TBIL [8]: 0.1 mg/dL
TC [8]: 102.4 mg/dL
TG [8]: 49 mg/dL
TP [8]: 6.6 g/dL
gamma-GTP [8]: 2.4 IU/L
